Reference: publication PMC7824769, “Identification of Small Molecules Blocking the Pseudomonas aeruginosa Type III Secretion System Protein PcrV” (Biomolecules, 2021)
“And” between values parts separate entries of the source, which are not always exact repeats. Equal entries are not always repeated.

What was measured:
[1] = biological target: PcrV (Pseudomonas aeruginosa, UniProt G3XD49); assay: SPR dose-response binding to immobilized PcrV (equilibrium analysis); settings: for Binding to PcrV in SPR (in words): dose-response SPR
Protocol: The SPR screening was performed using the ProteOn^TM XPR36 Protein Interaction Array System (Bio-Rad Laboratories Inc., Hercules, CA, USA) with ProteOn GLH sensor chip (Bio-Rad Laboratories Inc., Hercules, CA, USA), and the results were analyzed with the ProteOn Manager software^TM (Bio-Rad Laboratories Inc., Hercules, CA, USA), Excel 2016 (Microsoft Office), and GraphPad Prism 7.04. All SPR experiments were performed at 25 °C. The multichannel module of the ProteOn system was in the vertical position during protein immobilization. The proteins were attached to the surface of a GLH sensor chip via amine coupling chemistry. A buffer scouting was performed to elucidate the optimal binding conditions of PcrV to the GLH sensor chip. First, channels 1–4 on the chip surface were activated using a 1:1 mixture of 40 mM 1-ethyl-3-(3-dimethylaminopropyl)carbodiimide hydrochloride (EDAC) (Bio-Rad Laboratories Inc., Hercules, CA, USA) and 10 mM N-hydroxysulfosuccinimide (sulfo-NHS, Bio-Rad Laboratories Inc., Hercules, CA, USA) for 300 s at 30 µL/min. Next, the proteins PcrV (33,398.6 Da, 6.37 mg/mL) was diluted in 10 mM NaOAc (pH 4, 4.5, and 5) to 0.05 mg/mL. PcrV was immobilized in channel 1–3 for 540 s at 30 µL/min. Channel 4 was flushed with 10 mM NaOAc (pH 5) for 540 s at 30 µL/min. As deactivating agent, a 1:1 mixture of 1 M ethanolamine and milli-Q filtered water was used. The deactivating solution was injected over all four channels for 300 s at 30 µL/min. Phosphate buffered saline with Tween (PBST; 10 mM phosphate buffer pH 7.4, 140 mM NaCl, 2.7 mM KCl, and 0.05% Tween 20) was used as the running buffer. The final amount of immobilized protein was measured in resonance units (RU) relative to the signal of the baseline prior activation. […] Immobilization of PcrV diluted in sodium acetate of pH 4.5 in one channel and of pH 5 in one channel were used in the beginning of the screening procedure (for plate 1–26). Since no difference was found between the two pH values, the PcrV protein was diluted in sodium acetate at pH 5 only (in two channels) from plate 27 and the rest of the screen. The immobilization procedure for the screening was performed as described above with the addition that the control protein carbonic anhydrase isoenzyme II from bovine erythrocytes (CAII, Sigma-Aldrich, article number 2522) was immobilized in one channel that was activated and deactivated as described above. CAII (1 mg/mL in PBS) was deactivated when diluted in 10 mM sodium acetate (pH 4) to 0.05 mg/mL. Immobilization level of the deactivated CAII was 18,000 RU. Deactivated CAII was used as a control protein according to the recommendations by the ProteOn manufacturer (Bio-Rad Laboratories Inc., Hercules, CA, USA). As running buffer, we employed PBS (pH 7.4, 0.05% Tween 20).
First, the PcrV protein was immobilized in two channels as described above while keeping a blank channel which was activated and deactivated as described above. The multichannel module of the ProteOn system was in horizontal position during the small molecule interaction studies. They were serially diluted to (400,) 200, 100, 50, 25, 12.5, 6.25, and (3.125); or 100, 50, 25, and 12.5 µM; or 100, 66.7, 44.4, 29.6, 19.7, and 13.2 µM in PBST (0.05% Tween 20) with a total concentration of 5% DMSO in 96-well plates. The running buffer was PBST (0.05% Tween 20) containing 5% DMSO. The analytes were injected at a flowrate of 100 µL/min, contact time was 60 s, and dissociation time was 60–120 s. Solvent correction was performed continuously during the experiments to account for bulk response of DMSO. The data was then baseline-aligned, processed by channel referencing with the blank channel, and solvent-corrected. The equilibrium dissociation constant (KD) values were determined from equilibrium analysis in the ProteOn Manager software^TM. Solubility problems frequently hampered KD determination since the small molecules could not always be dissolved in concentrations high enough to reach a plateau. […]

[2] = tested on: J774 cells infected with P. aeruginosa strain PAK; assay: cells; assay type: cell-based, Pseudomonas aeruginosa; settings: for viability at 25 µM / viability at 50 µM / viability at 100 µM / viability at 200 µM: Pseudomonas aeruginosa, uninfected control = 100%, infected control = 0%; for viability at 25 µM: J774, compound 25 µM, read-out: Viability Assay (% of Uninfected Control) 25 µM; for viability at 50 µM: J774, compound 50 µM, read-out: Viability Assay (% of Uninfected Control) 50 µM; for viability at 100 µM: J774, compound 100 µM, read-out: Viability Assay (% of Uninfected Control) 100 µM; for viability at 200 µM: J774, compound 200 µM; for Anti-virulence efficacy in the infection assay (in words): 25-200 µM
Protocol: The cell viability assay was performed essentially as described before. J774 cells were seeded in 96-well micro-titer plates (Nunc), 100 µL/well, to a final number of 50,000 cells/well in Dulbecco’s modified Eagle’s medium (DMEM) with glutamax (Merck) supplemented with 10% fetal calf serum (FCS) and 3 µg/mL gentamicin and incubated for 16-18 h. Overnight cultures of the P. aeruginosa strains PAK and PAKpcrV [10] were grown in Luria Broth (LB) on a rotary shaker at 220 rpm at 37 °C. Prior to infection, the bacteria were diluted 1:10 in DMEM + glutamax and incubated for 1 h at 37 °C (shaking). The J774 cells were washed once with PBS, then 30 µL of DMEM with glutamax and 10% FCS supplemented with the potential binders at concentrations of 50, 100, 200, and 400 µM were added to the wells in triplicates. The infection was initiated by adding 30 µL of the diluted bacterial solutions (where the OD600 had been diluted to 0.0008) to each well to initiate infection. This infection results in a final bacterial concentration of OD600 = 0.0004 and a multiplicities of infection (MOI) of approximately 8, with final concentrations of the compounds at 25, 50, 100, and 200 µM in 60 µL of DMEM + glutamax and 5% FCS. In the primary screening, the compounds were run at one concentration (100 µM) in duplicates. As an infection control, the wild-type strain PAK with 1% DMSO was added, and as a positive control, PAKpcrV with 1% DMSO was added into four wells each. After 3 h and 30 min, 10 µL of UptiBlue Viable Cell Counting Kit (Interchime, France) was added to all wells. The infection was followed under the light microscope and the fluorescence (excitation 535 nm and emission 595 nm) was measured at 4, 5, and 6 h in a microplate reader (Synergy™ H4, Biotek). The results were calculated as percentage of living cells compared to uninfected control, where the uninfected control was set to 100% living cells and the infected control was set to 0% living cells. As a control, compounds were added to uninfected cells in a parallel experiment and viability was calculated as above to screen for cell toxicity. A compound was considered toxic if the viability was <80% of the uninfected control after 6 h of incubation and if a visual change of cell morphology was observed by microscopy. Z’ was calculated for each plate to ensure good quality throughout the screening. Only results from plates with a Z’ > 0.4 were counted. Standard deviation was calculated with Gaussian approximation when appropriate and shown as error bars in Figure 3C and Figure 4A.
The T3SS is important for P. aeruginosa infection of eukaryotic cells, and a T3SS activator mutant or a mutant lacking the T3SS tip protein PcrV are not able to infect eukaryotic cells. The macrophage cell line, J774, was infected with the wild-type P. aeruginosa strain PAK, and the potential PcrV binders were added to the wells at a final concentration of 100 µM to screen for inhibition of infection. The T3SS-mediated cytotoxic effect on the eukaryotic cells was measured by using a viability staining method (Uptiblue, Interchim), and the results were measured after 4, 5, and 6 h of infection. The pcrV-mutant (PAKpcrV), which is not able to infect macrophages due to deletion of the PcrV protein, was used as a control.

[3] = SPR KD, equilibrium analysis, mean ± SD of three or more independent experiments, individual values where n < 3, 25 °C, PBST 5% DMSO
[4] = KD ± standard error of KD (Table S1), single experiment, standard error from ProteOn Manager software

Chain of PcrV (G3XD49 entry or part of it): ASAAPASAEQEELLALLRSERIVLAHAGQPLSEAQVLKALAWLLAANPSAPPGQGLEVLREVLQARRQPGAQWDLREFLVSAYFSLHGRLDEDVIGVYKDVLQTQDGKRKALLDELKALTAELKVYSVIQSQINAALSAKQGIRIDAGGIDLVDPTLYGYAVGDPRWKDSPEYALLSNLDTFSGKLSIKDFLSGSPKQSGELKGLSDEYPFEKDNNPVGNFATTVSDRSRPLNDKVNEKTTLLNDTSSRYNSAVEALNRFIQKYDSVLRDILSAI

O=C(O)CCCOc1cc(Cl)cc(Cl)c1 [Compound 2]
Kd [1, 3]: < 127 µM and 102 µM and 127 µM

O=C(O)CCCOc1ccc(Cl)cc1 [Compound 3]
Kd [1, 3]: > 600 µM
Binding to PcrV in SPR (in words) [1]: no binding at the examined concentrations

O=C(O)CCCOc1ccc(I)cc1 [Compound 4]
Kd [1, 3]: > 600 µM
Binding to PcrV in SPR (in words) [1]: no binding at the examined concentrations

O=C(O)CCCOc1ccc(Br)cc1F [Compound 5]
Kd [1, 3]: > 600 µM
Binding to PcrV in SPR (in words) [1]: no binding at the examined concentrations

COc1ccc(Br)cc1OCCCC(=O)O [Compound 6]
Kd [1, 3]: > 600 µM
Binding to PcrV in SPR (in words) [1]: impaired binding

COc1cc(OC)cc(OCCCC(=O)O)c1 [Compound 7]
Kd [1, 3]: > 600 µM
Binding to PcrV in SPR (in words) [1]: impaired binding

O=C(O)CCCOc1ccc2c(c1)OCO2 [Compound 8]
Kd [1, 3]: > 600 µM
Binding to PcrV in SPR (in words) [1]: impaired binding

O=C(O)CCCOc1cccc(C(F)(F)F)c1 [Compound 9]
Kd [1, 3]: > 600 µM
Binding to PcrV in SPR (in words) [1]: no binding to PcrV

O=C(O)CCCOc1cccc(C(=O)O)c1 [Compound 10]
Kd [1, 3]: > 600 µM
Binding to PcrV in SPR (in words) [1]: no binding to PcrV

O=C(O)CCCOc1ccc2ccc(=O)oc2c1 [Compound 11]
Kd [1, 3]: > 600 µM
Binding to PcrV in SPR (in words) [1]: no binding to PcrV

Cc1cc(C#N)cc(C)c1OCCCC(=O)O [Compound 12]
Kd [1, 3]: > 600 µM
Binding to PcrV in SPR (in words) [1]: reduced binding

Cc1cc(Br)cc(C)c1OCCCC(=O)O [Compound 13]
viability at 25 µM [2]: 19%
viability at 50 µM [2]: 18%
viability at 100 µM [2]: 21%
viability at 200 µM [2]: 20%
Kd [1, 3]: 431 ± 110 µM
Binding to PcrV in SPR (in words) [1]: reduced binding

Cc1cc(OCCCC(=O)O)cc(C)c1Br [Compound 14]
Anti-virulence efficacy in the infection assay (in words) [2]: as efficacious as or better than H1
viability at 25 µM [2]: 13%
viability at 50 µM [2]: 23%
viability at 100 µM [2]: 26%
viability at 200 µM [2]: 32%
Kd [1, 4]: 80.7 ± 30.3 µM
Kd [1, 3]: < 150 µM and 148 µM
Rmax (Table S1) ([1]; single experiment): 78.9

O=C(O)CCCOc1ccc(C2CCCCC2)cc1 [Compound 15]
viability at 25 µM [2]: 12%
viability at 50 µM [2]: 17%
viability at 100 µM [2]: 24%
viability at 200 µM [2]: 17%
Kd [1, 3]: 153 µM

O=C(O)CCCOc1ccc(Cc2ccccc2)cc1 [Compound 16]
Kd [1, 3]: > 600 µM

Cc1c(Br)ccc(OCCCC(=O)N2CCCC(C(=O)O)C2)c1C (stereo not shown) [Compound 20]
Anti-virulence efficacy in the infection assay (in words) [2]: no or modest anti-virulence activity without clear dose-response
viability at 25 µM [2]: 15%
viability at 50 µM [2]: 15%
viability at 100 µM [2]: 15%
viability at 200 µM [2]: 9%
Kd [1, 4]: 71.2 ± 23 µM
Kd [1, 3]: 71 µM and 131 µM

Cc1c(Br)ccc(OCCCC(=O)NC(C(=O)O)c2ccccc2)c1C (stereo not shown) [Compound 21]
viability at 25 µM [2]: 12%
viability at 50 µM [2]: 26%
viability at 100 µM [2]: 36%
viability at 200 µM [2]: 30%
Kd [1, 4]: 66.5 ± 18.5 µM
Kd [1, 3]: 67 µM and 88 µM
Rmax (Table S1) ([1]; single experiment): 149.8

Cc1c(Br)ccc(OCCCC(=O)N2CCCCC2C(=O)O)c1C (stereo not shown) [Compound 22]
viability at 25 µM [2]: 18%
viability at 50 µM [2]: 27%
viability at 100 µM [2]: 29%
viability at 200 µM [2]: 28%
Kd [1, 4]: 61.5 ± 14.9 µM
Kd [1, 3]: 62 µM and 77 µM
Rmax (Table S1) ([1]; single experiment): 108.6

Cc1c(Br)ccc(OCCCC(=O)Nc2cc(F)c(F)cc2C(=O)O)c1C [Compound 24]
Kd [1, 3]: > 600 µM
Binding to PcrV in SPR (in words) [1]: failed to bind PcrV
